Laboratory results: publication PMC9572541, “Design, Synthesis and Biological Evaluation of Novel and Potent Protein Arginine Methyltransferases 5 Inhibitors for Cancer Therapy” (Molecules, 2022)

What follows are molecules tested against T1, PRMT5 (Homo sapiens, UniProt O14744) (assay: PRMT5 enzymatic activity inhibition assay (radioactive methylation, 3H-SAM to H4R3 peptide)). Settings: 100 nM compound; read-out: Inhibition Rate% @100 nM.
T1 construct: The final concentrations of PRMT5 enzyme: 2.5 nm/L
T1 sequence (O14744 whole entry): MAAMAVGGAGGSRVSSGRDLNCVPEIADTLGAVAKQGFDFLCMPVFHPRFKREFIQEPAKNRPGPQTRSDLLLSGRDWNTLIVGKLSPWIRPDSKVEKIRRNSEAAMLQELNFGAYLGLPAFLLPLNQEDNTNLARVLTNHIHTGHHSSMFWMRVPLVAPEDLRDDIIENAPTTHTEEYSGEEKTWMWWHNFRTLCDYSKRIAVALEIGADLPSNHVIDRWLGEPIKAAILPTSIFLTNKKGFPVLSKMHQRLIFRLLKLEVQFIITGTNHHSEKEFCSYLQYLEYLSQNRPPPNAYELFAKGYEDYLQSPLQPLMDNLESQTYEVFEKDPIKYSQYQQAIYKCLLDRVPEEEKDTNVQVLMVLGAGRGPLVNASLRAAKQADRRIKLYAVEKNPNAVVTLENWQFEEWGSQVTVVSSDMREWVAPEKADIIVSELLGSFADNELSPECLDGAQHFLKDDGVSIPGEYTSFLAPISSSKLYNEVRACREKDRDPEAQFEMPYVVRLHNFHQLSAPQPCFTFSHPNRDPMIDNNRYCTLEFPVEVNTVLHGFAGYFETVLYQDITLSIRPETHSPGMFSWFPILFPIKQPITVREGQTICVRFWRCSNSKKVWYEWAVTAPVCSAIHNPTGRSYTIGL
T1 sequence (Q9BQA1 whole entry partner): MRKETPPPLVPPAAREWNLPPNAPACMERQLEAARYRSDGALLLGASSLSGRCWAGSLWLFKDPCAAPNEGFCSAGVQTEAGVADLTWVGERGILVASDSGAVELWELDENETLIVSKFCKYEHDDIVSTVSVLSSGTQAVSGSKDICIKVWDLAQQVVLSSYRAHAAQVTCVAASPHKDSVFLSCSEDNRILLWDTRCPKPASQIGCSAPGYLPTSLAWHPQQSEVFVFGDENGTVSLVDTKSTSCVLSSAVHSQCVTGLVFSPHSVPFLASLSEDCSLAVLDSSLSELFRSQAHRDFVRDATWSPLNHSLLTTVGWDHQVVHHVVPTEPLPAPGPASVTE
Assay type: biochemical
Method: The PRMT5 enzymatic activity assay was conducted by Chempartner Life science. The final concentrations of PRMT5 enzyme: 2.5 nm/L; ^3H-SAM: 0.3 μM/L; histone peptide (H4R3S1ac): 0.3 μM/L. The protocol of radioactive methylation assay was as follows: (1) Prepare 1× assay buffer (modified Tris Buffer). (2) Transfer compounds to assay plate using Echo in 100% DMSO. DMSO’s final fraction is 1%. (3) Prepare enzyme and ^3H-SAM Mix solution in 1× assay buffer. (4) Prepare substrate (peptide sequence Ac-[…]-K(Biotin)) solution in 1× assay buffer. (5) Transfer 15 μL of enzyme and ^3H-SAM solution to assay plate. (6) Incubate at room temperature for 60 min. (7) Add 10 μL of substrate solution to each well to start the reaction, and for low control transfer 10 μL of 1× assay buffer. (8) Incubate at room temperature for 120 min. (9) Add cold SAM in 1× assay buffer to make the stop mix. (10) Stop reaction with addition of 5 µL per well of stop solution. (11) Transfer 25 µL of volume per well to Flash plate from assay plate. (12) Incubate for 1 h minimum at room temperature.
(13) Read plate on Micro beta. (14) Data process—get the data in Excel to obtain inhibition values using Equation (1).Inhibitory rate% = (Max-Signal)/ (Max-Min) × 100(1)
Fit the data in XL-Fit to obtain IC50 values using Equation (2): Y = Bottom + (Top-Bottom)/(1 + (IC50/X) […]) Y is% inhibition and X is compound concentration(2)
Work on `Cc1ccc2[nH]c3ccc(C(=O)NC[C@H](O)CN4CCc5ccccc5C4)cc3c2c1` [Compound 2, (S)-N-(3-(3,4-dihydroisoquinolin-2(1H)-yl)-2-hydroxypropyl)-6-methyl-9H-carbazole-3-carboxamide] yielded an inhibition at 0.1 µM of 59 ± 0.4%.
`O=C(NC[C@H](O)CN1CCc2ccccc2C1)c1ccc2[nH]c3ccc(F)cc3c2c1` [Compound 3, (S)-N-(3-(3,4-dihydroisoquinolin-2(1H)-yl)-2-hydroxypropyl)-6-fluoro-9H-carbazole-3-carboxamide] showed an inhibition at 0.1 µM of 65 ± 0.2%.
Molecule `COc1ccc2[nH]c3ccc(C(=O)NC[C@H](O)CN4CCc5ccccc5C4)cc3c2c1` [Compound 4, (S)-N-(3-(3,4-dihydroisoquinolin-2(1H)-yl)-2-hydroxypropyl)-6-methoxy-9H-carbazole-3-carboxamide] has an inhibition at 0.1 µM of 64 ± 1.5%.
`O=C(NC[C@H](O)CN1CCc2ccccc2C1)c1ccc2[nH]c3ccc(Cl)cc3c2c1` [Compound 5, (S)-6-chloro-N-(3-(3,4-dihydroisoquinolin-2(1H)-yl)-2-hydroxypropyl)-9H-carbazole-3-carboxamide] showed an inhibition at 0.1 µM of 69 ± 7%.
Molecule `Cn1c2ccccc2c2cc(C(=O)NC[C@H](O)CN3CCc4ccccc4C3)ccc21` [Compound 6, (S)-N-(3-(3,4-dihydroisoquinolin-2(1H)-yl)-2-hydroxypropyl)-9-methyl-9H-carbazole-3-carboxamide] has an inhibition at 0.1 µM of 63 ± 3.2%.
`O=C(NC[C@H](O)CN1CCc2ccccc2C1)c1ccc2[nH]c3c(c2c1)CCC3` [Compound 8, (S)-N-(3-(3,4-dihydroisoquinolin-2(1H)-yl)-2-hydroxypropyl)-1,2,3,4-tetrahydrocyclopenta[b]indole-7-carboxamide] showed an inhibition at 0.1 µM of 74 ± 2%.
Molecule `O=C(NC[C@H](O)CN1CCc2ccccc2C1)c1ccc2[nH]c3c(c2c1)CCCCC3` [Compound 9, (S)-N-(3-(3,4-dihydroisoquinolin-2(1H)-yl)-2-hydroxypropyl)-5,6,7,8,9,10-hexahydrocyclohepta[b]indole-2-carboxamide] has an inhibition at 0.1 µM of 73 ± 4.1%.
For `CC1CCc2[nH]c3ccc(C(=O)NC[C@H](O)CN4CCc5ccccc5C4)cc3c2C1` (stereo partly drawn) [Compound 11, N-((S)-3-(3,4-dihydroisoquinolin-2(1H)-yl)-2-hydroxypropyl)-3-methyl-2,3,4,9-tetrahydro-1H-carbazole-6-carboxamide], the inhibition at 0.1 µM was 67 ± 3.5%.
In the case of `CCC1CCc2[nH]c3ccc(C(=O)NC[C@H](O)CN4CCc5ccccc5C4)cc3c2C1` (stereo partly drawn) [Compound 12, N-((S)-3-(3,4-dihydroisoquinolin-2(1H)-yl)-2-hydroxypropyl)-3-ethyl-2,3,4,9-tetrahydro-1H-carbazole-6-carboxamide], the inhibition at 0.1 µM is reported as 58 ± 3.7%.
`CC(C)n1c2c(c3cc(C(=O)NC[C@H](O)CN4CCc5ccccc5C4)ccc31)CCCC2` [Compound 16, (S)-N-(3-(3,4-dihydroisoquinolin-2(1H)-yl)-2-hydroxypropyl)-9-isopropyl-2,3,4,9-tetrahydro-1H-carbazole-6-carboxamide] was tested, and the inhibition at 0.1 µM was 70 ± 0.2%.
In the case of `CC(C)Cn1c2c(c3cc(C(=O)NC[C@H](O)CN4CCc5ccccc5C4)ccc31)CCCC2` [Compound 17, (S)-N-(3-(3,4-dihydroisoquinolin-2(1H)-yl)-2-hydroxypropyl)-9-isobutyl-2,3,4,9-tetrahydro-1H-carbazole-6-carboxamide], the inhibition at 0.1 µM is reported as 75 ± 1.6%.
With `O=C(NC[C@H](O)CN1CCc2ccccc2C1)c1ccc2c(c1)c1c(n2CC2CC2)CCCC1` [Compound 18, (S)-9-(cyclopropylmethyl)-N-(3-(3,4-dihydroisoquinolin-2(1H)-yl)-2-hydroxypropyl)-2,3,4,9-tetrahydro-1H-carbazole-6-carboxamide] the inhibition at 0.1 µM was 60 ± 4.6%.
In the case of `CN1CCc2[nH]c3ccc(C(=O)NC[C@H](O)CN4CCc5ccccc5C4)cc3c2C1` [Compound 21, (S)-N-(3-(3,4-dihydroisoquinolin-2(1H)-yl)-2-hydroxypropyl)-2-methyl-2,3,4,5-tetrahydro-1H-pyrido[4,3-b]indole-8-carboxamide], the inhibition at 0.1 µM is reported as 48 ± 1.2%.
`CCN1CCc2[nH]c3ccc(C(=O)NC[C@H](O)CN4CCc5ccccc5C4)cc3c2C1` [Compound 22, (S)-N-(3-(3,4-dihydroisoquinolin-2(1H)-yl)-2-hydroxypropyl)-2-ethyl-2,3,4,5-tetrahydro-1H-pyrido[4,3-b]indole-8-carboxamide] showed an inhibition at 0.1 µM of 64 ± 10.7%.
With `O=C(NC[C@H](O)CN1CCc2ccccc2C1)c1ccc2[nH]c3c(c2c1)CN(C1CC1)CC3` [Compound 23, (S)-2-cyclopropyl-N-(3-(3,4-dihydroisoquinolin-2(1H)-yl)-2-hydroxypropyl)-2,3,4,5-tetrahydro-1H-pyrido[4,3-b]indole-8-carboxamide] the inhibition at 0.1 µM was 52 ± 4.8%.
`CCCN1CCc2[nH]c3ccc(C(=O)NC[C@H](O)CN4CCc5ccccc5C4)cc3c2C1` [Compound 24, (S)-N-(3-(3,4-dihydroisoquinolin-2(1H)-yl)-2-hydroxypropyl)-2-propyl-2,3,4,5-tetrahydro-1H-pyrido[4,3-b]indole-8-carboxamide] gave an inhibition at 0.1 µM of 63 ± 4.4%.
`CC(C)N1CCc2[nH]c3ccc(C(=O)NC[C@H](O)CN4CCc5ccccc5C4)cc3c2C1` [Compound 25, (S)-N-(3-(3,4-dihydroisoquinolin-2(1H)-yl)-2-hydroxypropyl)-2-isopropyl-2,3,4,5-tetrahydro-1H-pyrido[4,3-b]indole-8-carboxamide] was tested, and the inhibition at 0.1 µM was 51 ± 4.2%.
`CC(C)CN1CCc2[nH]c3ccc(C(=O)NC[C@H](O)CN4CCc5ccccc5C4)cc3c2C1` [Compound 26, (S)-N-(3-(3,4-dihydroisoquinolin-2(1H)-yl)-2-hydroxypropyl)-2-isobutyl-2,3,4,5-tetrahydro-1H-pyrido[4,3-b]indole-8-carboxamide] gave an inhibition at 0.1 µM of 59 ± 1.4%.
